The nature of the data set: Two-component Cys-Cys stapling with divinyltriazine (DVT): double thia-Michael addition on recombinant StrepII-GB1-peptide-His8 fusions, stepwise linker addition (pseudo-dilution), DTT quench. To be noted: the molecule shown is the open-chain precursor, PBS + 200 mM imidazole (2 mM linker stock in DMSO added stepwise), 0.02 mM, scale: 1 = stapled product confirmed by ESI-MS as.

For five substances, ring closure, product found results are on record in publication PMC10699557, “A recombinant approach for stapled peptide discovery yields inhibitors of the RAD51 recombinase” (Chemical Science, 2023).

For “StrepII-GB1-...GSDP-ACGFSTASGKKLNVSCEALQKAVKLFSDIENIS-DPGS...-His8 (free Cys thiols, + DVT)”, under “54-membered ring”, the ring closure, product found worked out at 1.
As to “StrepII-GB1-...GSDP-SCFSTASGKKLNVSCEALQKAVKLFSDIENIS-DPGS...-His8 (free Cys thiols, + DVT)”, the ring closure, product found (51-membered ring) was determined as 1.
“StrepII-GB1-...GSDP-SSACSGFSTASGKKLNVSTEACQKAVKLFSDIENIS-DPGS...-His8 (free Cys thiols, + DVT)”: the ring closure, product found (66-membered ring) turned out to be 1.
Regarding “StrepII-GB1-...GSDP-VNSSAFSGFSTASGKKLNVSCEALQKACKLFSDIENIS-DPGS...-His8 (free Cys thiols, + DVT)”, the ring closure, product found (33-membered ring) worked out at 1.
As to “StrepII-GB1-...GSDP-VNSSAFSGFSTASGKKLNVSTEALQKACKLFSDIECIS-DPGS...-His8 (free Cys thiols, + DVT)”, under “36-membered ring”, the ring closure, product found is 1.
